Here are results for nine compounds from PMC9124243 (Cell chemical biology, 2021).

Like-named read-outs stand apart in the source and are kept apart here.

For one assay, the target named is Mtb DnaK-DnaJ2-GrpE (Mycobacterium tuberculosis, UniProt P9WMJ9). Briefly: biochemical.
In the next assay the target is Mtb DnaK^FL (Mycobacterium tuberculosis, UniProt P9WMJ9). In kind it is binding. The note with it: FP competition.
The target of a further assay is human Hsc70 and DnaJA2 (Homo sapiens, UniProt P11142). The assay can be described thus: Denatured luciferase refolding by human chaperones. In kind it is biochemical.
Sequence of human Hsc70 and DnaJA2 (P11142 whole entry): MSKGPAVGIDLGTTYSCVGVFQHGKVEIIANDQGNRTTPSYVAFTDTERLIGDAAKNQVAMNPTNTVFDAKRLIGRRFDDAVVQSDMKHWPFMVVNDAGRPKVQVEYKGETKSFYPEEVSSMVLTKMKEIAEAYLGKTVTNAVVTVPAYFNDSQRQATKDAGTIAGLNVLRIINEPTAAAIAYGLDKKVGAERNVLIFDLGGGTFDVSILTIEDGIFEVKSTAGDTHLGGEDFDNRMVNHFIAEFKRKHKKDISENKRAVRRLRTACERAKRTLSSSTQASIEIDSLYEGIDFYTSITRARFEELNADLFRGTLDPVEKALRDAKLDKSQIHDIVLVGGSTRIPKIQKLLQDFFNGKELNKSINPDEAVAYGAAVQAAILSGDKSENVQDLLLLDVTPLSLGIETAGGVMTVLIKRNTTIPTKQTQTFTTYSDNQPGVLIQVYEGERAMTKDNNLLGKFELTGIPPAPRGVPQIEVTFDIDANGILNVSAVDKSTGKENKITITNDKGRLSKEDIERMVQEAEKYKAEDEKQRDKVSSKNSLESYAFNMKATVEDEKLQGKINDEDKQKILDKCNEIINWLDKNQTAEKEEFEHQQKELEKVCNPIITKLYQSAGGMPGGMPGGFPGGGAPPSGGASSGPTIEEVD
The target of assay [1] is mycobacterial DnaK and GrpE with DnaJ2 (Mycobacterium tuberculosis, UniProt P9WMJ9). In kind it is biochemical. The note with it: excess compound.
Sequence of mycobacterial DnaK and GrpE with DnaJ2 (P9WMJ9 whole entry): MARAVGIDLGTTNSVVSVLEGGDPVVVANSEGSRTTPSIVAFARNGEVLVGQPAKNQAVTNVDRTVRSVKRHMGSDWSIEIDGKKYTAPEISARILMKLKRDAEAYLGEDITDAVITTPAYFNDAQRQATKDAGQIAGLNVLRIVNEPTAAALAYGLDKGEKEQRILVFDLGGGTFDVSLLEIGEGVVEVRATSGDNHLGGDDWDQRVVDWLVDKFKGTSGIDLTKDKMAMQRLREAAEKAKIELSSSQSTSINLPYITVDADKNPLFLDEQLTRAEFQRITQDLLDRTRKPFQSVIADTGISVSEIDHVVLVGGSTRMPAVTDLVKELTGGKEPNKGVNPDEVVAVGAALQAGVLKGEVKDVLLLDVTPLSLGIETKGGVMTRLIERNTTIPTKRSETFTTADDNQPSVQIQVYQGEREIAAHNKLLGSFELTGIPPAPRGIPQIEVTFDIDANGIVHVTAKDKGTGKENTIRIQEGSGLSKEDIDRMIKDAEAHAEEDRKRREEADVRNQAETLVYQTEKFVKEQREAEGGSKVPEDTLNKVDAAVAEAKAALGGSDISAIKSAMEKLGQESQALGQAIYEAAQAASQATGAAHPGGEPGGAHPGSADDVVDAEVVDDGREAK
For the next assay, the system named is luciferase. Briefly: Luciferase counter-assay. In kind it is biochemical.
For assay [2], the target named is Mtb DnaK activation by DnaJ2 and GrpE (Mycobacterium tuberculosis, UniProt P9WMJ9). In kind it is biochemical. The note with it: for DnaJ2- and GrpE-mediated activation of DnaK: excess HCV inhibitor, DnaK 4 μM.
Sequence of Mtb DnaK activation by DnaJ2 and GrpE (P9WMJ9 whole entry): as above
The test system of another assay is M. smegmatis (Msm). The assay can be described thus: Mycobacterial growth inhibition assay. In kind it is cell-based, Mycobacterium smegmatis. The note with it: for effect on Msm growth: wild-type Msm.
Assay [3] concerns Msm. The note with it: below the limit of detection; ref Fay et al., 2021; cited from earlier work.
For assay [4], the target named is DnaK^SBD, residues 360-625 (Mycobacterium tuberculosis, UniProt P9WMJ9). In kind it is binding. The note with it: FP competition.
Sequence of DnaK^SBD, residues 360-625 (P9WMJ9 360-625): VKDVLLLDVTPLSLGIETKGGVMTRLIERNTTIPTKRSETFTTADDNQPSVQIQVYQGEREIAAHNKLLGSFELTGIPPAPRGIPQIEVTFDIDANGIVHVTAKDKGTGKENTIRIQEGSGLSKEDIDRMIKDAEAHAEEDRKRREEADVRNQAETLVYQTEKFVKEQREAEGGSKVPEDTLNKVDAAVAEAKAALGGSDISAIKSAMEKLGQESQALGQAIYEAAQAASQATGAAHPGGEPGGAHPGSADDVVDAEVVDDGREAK
Another assay deals with Mtb DnaK (Mycobacterium tuberculosis, UniProt P9WMJ9). In kind it is biochemical. The note with it: excess compound, DnaK without cofactors.
Sequence of Mtb DnaK (P9WMJ9 whole entry): as the sequence (P9WMJ9 whole entry) above
Assay [5] concerns Msm. Briefly: MIC assays for antibiotic synergy with TP. The note with it: for improvement in MIC50: with 100 μM TP added. In kind it is cell-based, Mycobacterium smegmatis.
Assay [6] has as its system Msm. In kind it is cell-based, Mycobacterium smegmatis.
The target of the next assay is proteinase K (Parengyodontium album, UniProt P06873). Briefly: Hemoglobin proteolysis control for proteinase K activity. In kind it is biochemical. The note with it: 50 μM TP.
Sequence of proteinase K (P06873 106-384): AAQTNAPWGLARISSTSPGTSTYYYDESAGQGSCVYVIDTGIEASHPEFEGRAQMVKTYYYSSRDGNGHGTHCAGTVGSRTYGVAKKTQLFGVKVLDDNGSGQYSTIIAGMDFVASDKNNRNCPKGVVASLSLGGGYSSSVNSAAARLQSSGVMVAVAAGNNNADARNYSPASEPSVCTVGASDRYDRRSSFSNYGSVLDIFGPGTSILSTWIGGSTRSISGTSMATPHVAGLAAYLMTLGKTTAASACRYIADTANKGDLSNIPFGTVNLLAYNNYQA
For the next assay, the target named is HCV protease (NS3/4A). The note with it: ref Grillot et al., 2011; cited from earlier work.
Setting [7] is: kinetic analysis of ATP hydrolysis by DnaK-DnaJ2-GrpE.

Sequence of Mtb DnaK-DnaJ2-GrpE (P9WMJ9 whole entry): as the sequence (P9WMJ9 whole entry) above
Sequence of Mtb DnaK^FL (P9WMJ9 whole entry): as above

For the compound 4BB-Val-Val-Pro-Leu-OH [Compound 3], the “inhibition of DnaK-DnaJ2-GrpE ATPase activity in dose-response assay” value (from here on “inhibition … in dose-response assay”) at Mtb DnaK-DnaJ2-GrpE is “no activity”.

Consider 4BB-Val-Val-Pro-Leu-OMe [Compound 6], for which the “inhibition … in dose-response assay” value at Mtb DnaK-DnaJ2-GrpE is given as “no activity”.

On to `CC(C)(C)NC(=O)N[C@H](C(=O)N1C[C@H]2[C@@H]([C@H]1C(=O)NC(CC1CCC1)C(=O)C(N)=O)C2(C)C)C(C)(C)C` (some centres unmarked) [BC, boceprevir], for which, at Mtb DnaK-DnaJ2-GrpE (dose-response), the “inhibition … in dose-response assay” value is “inactive”. Moreover, the “competition with FL-NR for binding to DnaK” value on Mtb DnaK^FL was “no effect on binding of the probe”. Also, the “inhibition of human chaperones” value against human Hsc70 and DnaJA2 (excess compound) was “does not inhibit”. Besides, the “effect on refolding reactions” value in [1] is recorded as “only a slight effect”.

`CNC(=O)[C@H]1O[C@@H](n2cnc3c(NCc4cccc(I)c4)nc(Cl)nc32)[C@H](O)[C@@H]1O` [MECA, 2Cl-IB-MECA]: the IC50 – broadly, the concentration that inhibits the measured activity by half – against Mtb DnaK-DnaJ2-GrpE is ~4500 nM. Besides, on Mtb DnaK-DnaJ2-GrpE (setting [7]), the “competition with ATP” value is reported as “no competition with ATP”. The “activity against luciferase alone” value in the assay on luciferase is on record as “no activity”. The “DnaJ2-mediated activation of DnaK's ATPase activity” value in assay [2] is given as “hindered”. In addition, in assay [2] (excess MECA, sub-stoichiometric DnaJ2), the “activation of DnaK by increasing concentrations of GrpE” value is “nearly abrogated”. In addition, the “effect on Msm growth” value in the assay with M. smegmatis (Msm) is given as “only TP appears to cause growth inhibition of mycobacterial cells”.

Turning to `CO[C@H]1/C=C/O[C@@]2(C)Oc3c(C)c(O)c4c(O)c(c(/C=N/N5CCN(C)CC5)c(O)c4c3C2=O)NC(=O)/C(C)=C\C=C\[C@H](C)[C@H](O)[C@@H](C)[C@@H](O)[C@@H](C)[C@H](OC(C)=O)[C@@H]1C` [RIF, rifampicin], in the assay on Msm [3], the “FOR value of Msm ΔdnaJ2 cells” value is reported as < 10^−10.

For the compound `CCC[C@H](NC(=O)[C@@H]1[C@H]2CCC[C@H]2CN1C(=O)[C@@H](NC(=O)[C@@H](NC(=O)c1cnccn1)C1CCCCC1)C(C)(C)C)C(=O)C(=O)NC1CC1` [TP, Telaprevir], on Mtb DnaK-DnaJ2-GrpE (setting [7]), the “increase of the KM of DnaK” value is ~ 2 fold. The “activity against luciferase alone” value with luciferase was “no activity”. Moreover, in assay [2], the “DnaJ2- and GrpE-mediated activation of DnaK” value is on record as “significantly disrupted”. Moreover, the “displacement of FL-NR from DnaK^SBD” value in assay [4] is “displace FL-NR”. Moreover, on Mtb DnaK, the “effect on DnaK ATPase activity” value is given as “slightly inhibits”. Also, the “refolding activity compared to DMSO alone” value on human Hsc70 and DnaJA2 (100 μM TP) is listed as 35%. The “concentration causing growth inhibition” value with M. smegmatis (Msm) was > 100 µM. Besides, the “growth of Msm ΔdnaJ1” value with M. smegmatis (Msm) (100 μM TP) is recorded as “growth defects”. For the same compound, in the assay on Msm [5] (100 μM TP), the “effect on activity of rifampicin” value is “does not affect the activity”. Further, the “lowering of the FOR of RIF” value in the assay on Msm [6] (100 μM TP + 240 μM RIF, Msm) is recorded as “about 1 log10”. The “FOR of Msm for RIF with TP added” value in the assay with Msm [6] (240 μM RIF + 100 μM TP) was ~ 10^−8. Also, the “effect on cleavage by proteinase K” value at proteinase K is reported as “did not affect cleavage by proteinase K”. In addition, on HCV protease (NS3/4A), the Ki (commonly the dissociation constant of the complex between target and ligand, obtained from inhibition or displacement) was 44 nM.

In the case of `NC[C@H]1O[C@H](O[C@H]2[C@H](O)[C@@H](O[C@H]3O[C@H](CO)[C@@H](O)[C@H](N)[C@H]3O)[C@H](N)C[C@@H]2N)[C@H](O)[C@@H](O)[C@@H]1O` [kanamycin], in the assay with Msm [5], the “improvement in MIC50” value was ~ 2 fold.

Regarding `COc1ccc2c(O[C@@H]3C[C@H]4C(=O)N[C@]5(C(=O)NS(=O)(=O)C6CC6)C[C@H]5/C=C\CCCCN(C)C(=O)[C@@H]4C3)cc(-c3nc(C(C)C)cs3)nc2c1C` [simeprevir], the “IC50 value relative to that of TP” value on Mtb DnaK-DnaJ2-GrpE (DnaK-DnaJ2-GrpE ATPase) is ~ 8 fold. Moreover, the “inhibition … in dose-response assay” value against Mtb DnaK-DnaJ2-GrpE (dose-response) is listed as “measurable inhibition”. Besides, the “DnaJ2- and GrpE-mediated activation of DnaK” value in [2] is on record as “significantly disrupted”. In addition, the “effect on Msm growth” value with M. smegmatis (Msm) is listed as “did not affect Msm growth”.

On to `[H]/N=C(/N)N[C@H]1[C@H](O)[C@@H](O)[C@H](O[C@@H]2O[C@@H](C)[C@](O)(C=O)[C@H]2O[C@@H]2O[C@@H](CO)[C@H](O)[C@@H](O)[C@@H]2NC)[C@@H](N/C(N)=N\[H])[C@@H]1O` [streptomycin], for which the “improvement in MIC50” value in the assay on Msm [5] is ~4 fold.
